Test results published in patent publication EP0334146A1, “Morpholines and morpholine-N-oxides, medicines containing these compounds and process for their preparation” (Dr. Karl Thomae GmbH, priority 1988, dated 1989).

Test system: Mäusen
Experiment: Cardiac side effects: heart rate by ECG-triggered tachograph during the blood glucose test
Format: in vivo
Details: Dose 3,0 mg/kg oral; one hour after application; values in brackets = not significant (p > 0.05)
Source text: Das Auftreten von unerwünschten Nebenwirkungen auf das Herz konnte für die erfindungsgemäßen Verbindungen für den therapeutisch angestrebten stoffwechselaktiven Dosisbereich ausgeschlossen werden. Als Nachweis diente die Messung der Herzfrequenz an Mäusen während der Testung auf blutzuckersenkende Wirkung (s.o.). Eine Stunde nach der oralen Applikation der Verbindungen wurde die Herzfrequenz mittels EKG-getriggertem Tachographen bestimmt. Die nachfolgende Tabelle gibt die Änderung der Herzfrequenz in % der Kontrollgruppe wieder.

## CC(Cc1ccc(OCC(=O)O)cc1)N1CCOC(c2cccc(Cl)n2)C1 (stereo not shown) [Beispiel 4, N-[2-(4-Carboxymethoxyphenyl)-1-methylethyl]-2-(6-chlor-pyridin-2-yl)-morpholin]
  Änderung der Herzfrequenz, % Änderung vom Wert der Kontrollgruppe: ( 0 ) %
